# Source: PMC12775823, “Glucosylceramide regulates depression through activating peroxisome proliferator-activated receptor gamma in dorsal striatum” (Theranostics, 2026)
# Experiments:
# PPARγ [1] = test system: T1, PPARγ; assay: Lipid-protein pull down assay, dorsal striatum lysate; type: binding; settings: GlcCer-beads, dorsal striatum of mice
# T1 construct: from tissue; host or cells: mouse dorsal striatum
# Protocol: Dorsal striatal tissues were cut into small pieces and then centrifuged at 13,000 g for 15 min at 4 °C. Supernatants were collected, and protein concentrations were determined using BCA assay. GlcCer-beads were equilibrated by washing them three times with ice-cold PBS. The clarified cell lysate was added to the equilibrated beads, then the mixture was incubated on a rotator at 4 °C for overnight, use approximately 500 µg of total protein per reaction. After incubation, the beads were washed three times with ice-cold PBS. Following the final wash, the beads were resuspended in SDS-PAGE sample buffer and heat at 95°C for 5 min to elute the bound proteins. The eluted sample was used to western blotting analysis.
# PPARγ-LBD = test system: T2, PPARγ-LBD; assay: Bio-layer interferometry, PPARγ LBD; type: binding, human; settings: biolayer interferometry, Figure S7D, E
# T2 construct: human PPARγ-LBD (residues 223-505); 6xHis; made in house; host or cells: E. coli BL21 (DE3)
# Protocol: The bio-layer interferometry assay was performed at 30 °C on the Octet RED96 System (ForteBio, USA) with PBS as the running buffer. Purified PPARγ-LBD were biotinylated using the EZ-Link Sulfo-NHS-LC-Biotinylation Kit (Thermo Fisher Scientific, USA) according to the manufacturer's instructions. The biotinylated PPARγ was then immobilized onto SSA Biosensors (ForteBio, USA), pre-equilibrated in the running buffer. The biosensors were incubated with various concentrations of the GlcCer or pioglitazone, followed by dissociation. The data were analyzed and the binding parameters were determined using the software supplied by the manufacturer.
# CRS-induced mice = assay: Behavioral tests (OFT, EPMT, LDT, SPT, FST) in chronic restraint stress mice, intra-dorsal striatal infusion; type: in vivo
# Protocol: For intracranial injection, mice were surgically implanted with sterilized guide cannulae in dorsal striatum. […] Mice were intraperitoneally injected with CNO (1 mg/kg/d) before behavioral test.
# Chronic restraint stress (CRS). For the CRS protocol, male C57BL/6J mice (8-10 weeks old) were obtained from Charles River Laboratories (Beijing, China). Mice were individually placed into well-ventilated 50 mL conical restraint tube (suitable for mice weighing 20-25 g) with multiple holes for 4 h daily between 10:00 AM and 2:00 PM to minimize circadian rhythm variations. The restraint stress procedure was conducted for 14 consecutive days. Then, all behavioral test were performed between 10:00 AM and 18:00 PM.
# Elevated plus maze test (EPMT).
# Light-dark Transition test (LDT).
# Sucrose preference test (SPT).
# Forced swimming test (FST).
# [2] = LC-MS of GlcCer levels in dorsal striatum of CRS-induced mice; type: in vivo; settings: intra-dorsal striatum infusion of pioglitazone, GlcCer or combination
# Protocol: The procedure for the extraction of sphingolipids was established according to the LIPID MAPS protocol with modifications. Briefly, dorsal striatal tissues were added 0.5 mL of MeOH, 0.25 mL of CHCl3 and 7.5 μL of internal standards cocktail (2.5 μM). For sphingolipidomics, 5 μL of internal standards mixture (LM6002, Avanti polar lipids) was added. The mixture was then ultrasonicated for 45 s at room temperature and incubation at 48°C overnight. To avoid potentially interfering glycerolipids, 75 μL of KOH in MeOH (1M) was added, followed by incubation in a heat block at 200 rpm for 2 h at 37 °C. After neutralization, a four-step extraction process was performed to obtain SPL extract for analysis. The supernatant was transferred to a new Eppendorf tube and the resides were added l mL of MeOH and 2 mL of CHCl3, followed by centrifugation at 3800 rpm for 8 min. […] Sphingolipidomics were measured with ultra-high-performance liquid chromatography (UPLC) coupled with hybrid Quadrupole-Orbitrap high resolution mass spectrometry (Q-Exactive-HRMS). […] For […] quantitation, brain tissues were quantified by UPLC-MS/MS using a Q-Exactive-HRMS with UPLC. […] Quantification of […] with various fatty acid chain lengths were achieved using the calibration curve of each GlcCer species with closest number of chain length. […]
# PPARγ target genes = assay: qRT-PCR of PPARγ target genes in PPARγ-overexpressing N2a cells; type: cell-based; settings: 0.1, 1 and 10 μM
# PPARγ [3] = test system: T1, PPARγ; assay: PPARγ mRNA, protein and transcriptional activity in dorsal striatum of CRS-induced mice; type: in vivo; settings: intra-dorsal striatum pioglitazone, GlcCer or combination
# From the text: Dorsal striatal tissues were processed in accordance with the RNA isolation kit's instructions (RC102/RC112; Vazyme Biotech Co.,Ltd), mRNA was reverse transcribed using HiScript® III All-in-one RT SuperMix (Vazyme Biotech Co.,Ltd), and cDNA was amplified using SYBR Green (Vazyme Biotech Co.,Ltd). The 2^-ΔΔCt method was used to analyze gene expression, and the relative level of the target gene was normalized to Gapdh. The primer sequences can be found in Supplemental materials Table S1.
# Brain tissues were cut into small pieces and then centrifuged at 13,000 g for 15 min at 4 °C. Supernatants were collected, and proteins concentrations were determined by BCA assay. Samples were denatured at 95 °C for 5 min and subsequently stored at -80 °C for further use. Protein samples were loaded onto 10% SDS-PAGE and transferred on PVDF membranes. After being blocked with 5% nonfat dry milk in Tris-buffered saline with 0.1% Tween-20 for 1.5 h, the PVDF membranes were incubated with corresponding primary antibodies overnight at 4 °C. Membranes were then incubated with HRP-conjugated secondary antibodies for 1 h at room temperature and measured with chemiluminescence imaging system (ChemiScope; Clinx, China).
# Nuclear extracts were prepared from N2a cells using a nuclear extraction kit according to the manufacturer protocol. The binding reaction between PPARγ and PPRE was carried out at 4°C for 16 h using 3 μg of nuclear extracts. The binding activity between PPARγ and PPRE was indicated by the change of optical density (OD) at 405 nm, and an enzyme reaction was measured by HRP-conjugated antibody in complex of PPRE/ PPARγ/antibody.
# [4] = CRS mice, pioglitazone 1 μM, GlcCer 200 μM, 1 μL/side, or combination
substance,measurement,setting,value
Glucosylceramide [GlcCer],interaction between PPARγ and GlcCer (lipid-protein binding assay),PPARγ [1],direct interaction
same,binding affinity for the LBD (BLI),PPARγ-LBD,minimal binding affinity
same,time spent in the center area (OFT),"CRS-induced mice; CRS mice vs vehicle, pioglitazone 1 μM, GlcCer 200 μM, 1 μL/side, or combination",significant increase
same,stress-induced depression-like behaviors (overall),"CRS-induced mice; CRS mice, administration of GlcCer, pioglitazone or combined",reverses
same,immobility duration in the FST,CRS-induced mice; [4],decreased
same,sucrose preference in the SPT,CRS-induced mice; [4],increased
same,GlcCer levels in the dorsal striatum (LC-MS),[2],increased
same,expression of Adipoq and Leptin,PPARγ target genes,robustly upregulated
same,"expression of adipogenesis-related genes (Srebp-1c, Adrp, Fabp4, Fasn, Cd36)",PPARγ target genes,little or no effect
same,PPARγ activity in the dorsal striatum,PPARγ [3],significantly enhanced
same,PPARγ mRNA or protein expression,PPARγ [3],"neither pioglitazone, GlcCer, nor their combination altered"
